Results as given in publication PMC9704608, “Anti-leishmanial physalins—Phytochemical investigation, in vitro evaluation against clinical and MIL-resistant L. tropica strains and in silico studies” (PLOS ONE, 2022).
≈ marks a conversion by molar mass, not a printed value. Read-outs that look alike come from different tables or passages of the source.

Legend:
[1] = test system: L. major promastigotes; experiment: Promastigote growth inhibition assay (MTT), L. major; assay type: cell-based, Leishmania major
Protocol: (§1) L. major and L. tropica (Clinical isolates) promastigotes were grown at […] in RPMI-1640 (Sigma) medium containing 10% of heat-inactivated (56°C for 30 min) fetal bovine serum. Cell viability was initially evaluated by wet mount method by observing the live cells under compound microscope. Parasite growth was assessed by counting live / motile promastigotes in a Neubauer chamber. Viable cell count was used for the further experimentations (treatments).
(§2) The promastigotes in their log phase were used in 96-well plates. 1 × 10^6 wild-type and resistant promastigotes were dispensed in 96 96-well plates, and incubated with tested compounds at a range concentration of 200–10 μM at 27°C for 72 h. After incubation of 72 h, MTT dye (3-(4,5-dimethylthiazol-2-yl)-2,5-diphenyl-2H-tetrazolium bromide) was added and further incubate it for 3–4 h. Amphotericin B, pantamidine and miltefosine were used as the positive control, untreated promastigotes were used as negative control moreover DMSO control was also added in the study as a stock solution of the compounds that were prepared in DMSO. All the experiments were performed in triplicates. After completion of the experiment the absorbance by Multiskan ascent plate reader at 452 nm and percent inhibition was calculated by the following formula.
(§3) Cytotoxic concentration (%) = [100- (Absorbance of test)/ (Absorbance of solvent control) ×100] %.

[2] = test system: L. tropica promastigotes; experiment: Promastigote growth inhibition assay (MTT), L. tropica clinical isolates; assay type: cell-based, Leishmania tropica
Protocol: as §1, §2, §3

[3] = test system: MIL-resistant L. tropica promastigotes; experiment: Growth inhibition assay (MTT) against MIL-resistant line; assay type: cell-based, Leishmania tropica; details: miltefosine-unresponsive strain, promastigotes, 72 h
Protocol: as §2, §3
Promastigote cultures tL. tropica (Clinical isolates) were maintained at 26°C in RPMI-1640 medium containing 15% FBS and 1% penicillin–streptomycin mixture.
Generation of miltefosine-unresponsive strain was carried under high MIL pressure by in vitro passage with a stepwise increase in the MIL concentration. At each step, parasites were cultured and passaged every 3–4 days at an initial concentration of 5x10^5 promastigotes/mL in order to achieve -stable growth as compared to the wildtype isolate. Growth rates were measured for resistant populations and compared with the WT strain. Parasites were counted at an initial concentration of 5x10^5 parasites/mL and growth was measured daily using a Neubauer chamber until the population reached the stationary phase. Furthermore, the fluorescence microscopic investigations via DAPI stain were also carried out to supplement the study.

[4] = Cytotoxicity (MTT) against BJ cell line; assay type: cell-based, human; details: pure compounds; human fibroblast, 48 h; read-out: BJ cell line CC50 (μM± SD)
Protocol: (§4) The cytotoxicity of the test compounds against normal cell lines was evaluated through MTT (3-[4, 5-dimethylthiazole-2-yl]-2, 5-diphenyl-tetrazolium bromide] colorimetric assay in 96-well flat-bottomed microplates. The 3T3 (mouse fibroblast) and BJ (human fibroblast) were cultured Dulbecco’s Modified Eagle Medium, supplemented with 5% of fetal bovine serum (FBS), 100 IU/mL of penicillin and 100 μg/mL of streptomycin in 75 cm2 flasks, and then incubated in 5% CO2 incubator at 37°C. The growing cells were counted by using a haemocytometer, and diluted with the particular medium. The 5x10^4 cells/mL of the cell culture was prepared, and a sample […] was introduced into each well. […] After 48 hours, 200 μL MTT (0.5 mg/mL) was added, and the incubation was further continued for 4 hrs. After that time, 100 μL of DMSO was added to each well. The absorbance was measured using a micro plate reader (Spectra Max Plus, Molecular Devices, CA, USA) at 570 nm for the extent of MTT reduction to formazan within the cells. The cytotoxicity was recorded as CC50 against cells by using Soft- Max Pro software. Doxorubicin and cycloheximide were used as positive control. The experiments were run in triplicate.

[5] = test system: BJ (human fibroblast) cells; experiment: Cytotoxicity (MTT) against BJ cell line; assay type: cell-based
Protocol: as §4

[6] = Cytotoxicity (MTT) against 3T3 cell line; assay type: cell-based, mouse; details: pure compounds; mouse fibroblast, 48 h; read-out: 3T3 Cell line CC50 (μM± SD)
Protocol: (§5) The cytotoxicity of the test compounds against normal cell lines was evaluated through MTT (3-[4, 5-dimethylthiazole-2-yl]-2, 5-diphenyl-tetrazolium bromide] colorimetric assay in 96-well flat-bottomed microplates. The 3T3 (mouse fibroblast) and BJ (human fibroblast) were cultured Dulbecco’s Modified Eagle Medium, supplemented with 5% of fetal bovine serum (FBS), 100 IU/mL of penicillin and 100 μg/mL of streptomycin in 75 cm2 flasks, and then incubated in 5% CO2 incubator at 37°C. The growing cells were counted by using a haemocytometer, and diluted with the particular medium. The 5x10^4 cells/mL of the cell culture was prepared, and a sample […] was introduced into each well. The medium was removed after overnight incubation, and 200 μL of fresh medium was added with different concentrations of compounds (1–30 μM). After 48 hours, 200 μL MTT (0.5 mg/mL) was added, and the incubation was further continued for 4 hrs. After that time, 100 μL of DMSO was added to each well. The absorbance was measured using a micro plate reader (Spectra Max Plus, Molecular Devices, CA, USA) at 570 nm for the extent of MTT reduction to formazan within the cells. The cytotoxicity was recorded as CC50 against cells by using Soft- Max Pro software. Doxorubicin and cycloheximide were used as positive control. The experiments were run in triplicate.

[7] = test system: 3T3 (mouse fibroblast) cells; experiment: Cytotoxicity (MTT) against 3T3 cell line; assay type: cell-based
Protocol: as §5

[8] = test system: BJ (human fibroblast) cells; experiment: Cytotoxicity (MTT) against BJ cell line; assay type: cell-based; details: cytotoxicity of extracts and fractions, read-out: BJ (human fibroblast) IC50 (μg/ml ± SD)
[9] = test system: 3T3 (mouse fibroblast) cells; experiment: Cytotoxicity (MTT) against 3T3 cell line; assay type: cell-based; details: cytotoxicity of extracts and fractions, read-out: 3T3 (mouse fibroblast) IC50 (μg/ml ± SD)

For `C=C1C(=O)OC2CC1(C)C1C(=O)C3(O)OC14C(O)(CCC1C3CC3OC35CC=CC(=O)C15C)C(=O)OC24C` (stereo not drawn) [Compound 6, 5β, 6β-epoxyphysalin C], the “L. major SI (CC50/ IC50)” value ([1]; CC50 3T3 mouse fibroblast cell line / IC50 L. major) was 0.007, the “L. major SI (CC50/ IC50)” value ([1]; CC50 BJ fibroblast cell line / IC50 L. major) was 1.19 and the IC50 ([1]; Leishmania major, pure compounds, standard drugs, promastigotes, 72 h, read-out: L. major IC50 (μM± SD)) was 84.8 ± 1.56 µM. The “anti-leishmanial activity against promastigotes of L. major (in words)” value ([1]; in vitro) was “no significant activity”, the “L. tropica SI (CC50/ IC50)” value ([2]; CC50 3T3 mouse fibroblast cell line / IC50 L. tropica) was 0.025 and the “L. tropica SI (CC50/ IC50)” value ([2]; CC50 BJ fibroblast cell line / IC50 L. tropica) was 4.20. The IC50 ([2]; Leishmania tropica, pure compounds, standard drugs, promastigotes, clinical isolate, 72 h, read-out: L. tropica IC50 (μM± SD)) was 23.8 ± 1.1 µM, the “MIL Resistant L. tropica IC50 (μM± SD)” value [3] was “inactive” and the CC50 [4] was greater than 100 µM. For the same molecule, the “L. major SI (CC50/ IC50)” value ([5]; CC50 BJ cell line / IC50 L. major) was 1.19, the IC50 ([5]; Homo sapiens, Fibroblast, cytotoxicity of compounds 1-9, read-out: BJ (human fibroblast) IC50 (μM± SD)) was 10.4 ± 1 µM and the CC50 [6] was 0.6 ± 0.04 µM. The “L. tropica SI (CC50/ IC50)” value ([7]; CC50 3T3 cell line / IC50 L. tropica) was 0.025 and the IC50 ([7]; Mus musculus, Fibroblast, cytotoxicity of compounds 1-9, read-out: 3T3 (mouse fibroblast) IC50 (μM ± SD)) was 0.6 ± 0.04 µM.

With `COc1cccc2c1C(=O)c1c(O)c3c(c(O)c1C2=O)C[C@@](O)(C(=O)CO)C[C@@H]3O[C@H]1C[C@H](N)[C@H](O)[C@H](C)O1` [Doxorubicin] the IC50 [8] was 0.1 ± 0.02 µg/mL (≈ 0.184 µM) and the IC50 [9] was 0.1 ± 0.02 µg/mL (≈ 0.184 µM).
